Where two headings read alike, the source gives them in different places.
Columns and labels:
[1] = Dose range finding / dose adjustment study with daily subcutaneous injections of TransCon PTH; design: time of peak calcium concentration postdose / increases in calcium to pre-study levels / calcium increases: dose or concentration left out as unconfirmed; settings: for sCa compared to pre-study levels: severe hypercalcaemic levels
Description: Dose Range Finding Study—Dose Adjustment Study in Cynomolgus Monkeys with Daily Subcutaneous Injections with TransCon PTH
This study was conducted in order to test the hypothesis of performing dose adjustments with TransCon PTH in 25% increments in response to hypocalcemia or hypercalcemia. The study was performed in male and female Cynomolgus monkeys. Four groups with one male and one female animal in each were dosed for four weeks starting at doses 0.2, 0.5, 1.0 and 2.0 μg/kg/day, respectively. Serum calcium (sCa) levels in the animals were measured pre-dose and post-dose on days -6, 1, 3, 7, 8, 12, 14, 16, 19, 23, 26, 28 and 29.

[2] = cited from earlier work
[3] = 6-year follow-up; cited from earlier work
[4] = cited from earlier work; for osteosarcoma rate: rats, daily injections
[5] = pump delivery, over 6-months; cited from earlier work

Molecule	sCa compared to pre-study levels ([1]; Day 3, female dosed at 2.0 μg/kg/day) [×]	sCa compared to pre-study levels ([1]; Day 3, male dosed at 2.0 μg/kg/day)	time of peak calcium concentration postdose ([1]; Day 23, male) [h]	increases in calcium to pre-study levels ([1]; Day 26, male and female)	calcium increases ([1]; Day 29, both sexes)	tolerability ([1]; daily subcutaneous administration at 0.2, 0.5 and 1.0 jag/kg/day for 28 days)	urinary calcium excretion ([2]; 2-8 hours after injection)	urinary phosphate excretion ([2]; after injection)	patients developing hypercalcemia at one or more measurements ([2]; during a 24-hour period after injection) [%]	participants achieving normal blood calcium levels on reduced doses of calcium supplements and active forms of vitamin D ([2]; once-daily subcutaneous injection, pivotal trial) [%]	urinary calcium excretion ([2]; over the 24-hour period)	BMD by DXA [3]	bone turnover markers [3]	deaths in high dose group ([4]; high dose rats, dosing discontinued, primarily from metastatic osteosarcoma)	osteosarcoma rate [4]	calcium levels [5]
TransCon PTH: controlled-release PTH compound administered subcutaneously to cynomolgus monkeys; not tied to a numbered conjugate	≤ 1.34	up to 1.42 ×	4	up to 1.17 ×	still present	well tolerated										
PTH(1-84): Natpara, PTH(1-84), approved 2015 for once-daily subcutaneous injection in hypoparathyroidism; SEQ ID NO: 1							reduced	increased only during the first 8 hours	71	42	did not change	increases in lumbar spine and declines in distal ⅓ radius	remained greater than pretreatment values	excessive deaths	dose dependent increase	
CC[C@H](C)[C@H](NC(=O)[C@H](CCC(=O)O)NC(=O)[C@H](CO)NC(=O)[C@@H](NC(=O)[C@@H](N)CO)C(C)C)C(=O)N[C@@H](CCC(N)=O)C(=O)N[C@@H](CC(C)C)C(=O)N[C@@H](CCSC)C(=O)N[C@@H](Cc1cnc[nH]1)C(=O)N[C@@H](CC(N)=O)C(=O)N[C@@H](CC(C)C)C(=O)NCC(=O)N[C@@H](CCCCN)C(=O)N[C@@H](Cc1cnc[nH]1)C(=O)N[C@@H](CC(C)C)C(=O)N[C@@H](CC(N)=O)C(=O)N[C@@H](CO)C(=O)N[C@@H](CCSC)C(=O)N[C@@H](CCC(=O)O)C(=O)N[C@@H](CCCN=C(N)N)C(=O)N[C@H](C(=O)N[C@@H](CCC(=O)O)C(=O)N[C@@H](Cc1c[nH]c2ccccc12)C(=O)N[C@@H](CC(C)C)C(=O)N[C@@H](CCCN=C(N)N)C(=O)N[C@@H](CCCCN)C(=O)N[C@@H](CCCCN)C(=O)N[C@@H](CC(C)C)C(=O)N[C@@H](CCC(N)=O)C(=O)N[C@@H](CC(=O)O)C(=O)N[C@H](C(=O)N[C@@H](Cc1cnc[nH]1)C(=O)N[C@@H](CC(N)=O)C(=O)N[C@@H](Cc1ccccc1)C(=O)O)C(C)C)C(C)C [PTH(1-34)]															dose dependent increase	normal, steady state calcium levels with minimal fluctuation

Reference: patent publication US12453778B2, “Incremental dose finding in controlled-release PTH compounds” (Ascendis Pharma Bone Diseases A/S, priority 2016, dated 2025)
